These results are taken from patent US9174951B2, “Glucose transporter inhibitors” (The Ohio State University Research Foundation, priority 2012, dated 2015).

For test [1], the system named is LNCaP cells. The experiment in a line: MTT cell viability assay, LNCaP. The test is classed as cell-based, human. To be noted: Homo sapiens, LNCaP, 72 h, MTT, 10% FBS. The protocol:
Cell Viability Assay. Cell viability was determined using the 3-(4,5-dimethylthiazol-2-yl)-2,5-diphenyltetrazolium bromide (MTT) assay. Cancer cells were seeded at 5000 cells/well and normal cells were seeded at 8000 cells/well in 96-well plates and incubated in 10% FBS-supplemented medium for 24 h. Cells were then treated with individual agents for 72 h. Drug-containing medium was replaced with medium containing MTT (0.5 mg/mL), followed by incubation at 37° C. for 1 h. After removal of medium, the reduced MTT dye in each well was solubilized in 100 μL of DMSO and absorbance at 570 nm was measured.
Compound 30 was evaluated for antiproliferative activity in panels of different human cancer cells lines, including those of prostate, breast and pancreatic cancers. In all experiments, cells were treated with a range of concentrations of Compound 30 in the presence of 10% fetal bovine serum (FBS). Cell viability was then determined after 72 h of treatment using the 3-(4,5-dimethylthiazol-2-yl)-2,5-diphenyltetrazolium bromide (MTT) assay. […] It is noteworthy that despite this high antiproliferative potency, normal human prostate epithelial cells (PrECs) were resistant to the cytotoxic effect of Compound 30 even at 10 μM.
On the technique in general: Tetrazolium assays rely on reduction of a dye to a coloured formazan, in cell work by metabolically active cells.

The subject of test [2] is LNCaP cells. Description: [3H]2-DG glucose uptake assay in LNCaP cells. To be noted: for IC50: Homo sapiens, LNCaP, Krebs-Ringer phosphate buffer, 37° C., 30 min of drug treatment, read-out: IC50 in blocking [3H]2-DG uptake into LNCaP cells; for inhibition of [3H]2-DG uptake into LNCaP cells (screening, in words): each at 5 μM, 30 min of exposure. It is filed as cell-based, human. The protocol: Screening of the focused compound library to identify lead glucose uptake inhibitors.
Glucose Uptake Assay. LNCaP cells were seeded in six-well plates (3×10^5 cells/well) for 24 h. […] The cells were lysed in […] lysis buffer (10 mM Tris-HCl pH 8.0, 0.1% SDS) and aliquots were taken for measurement of radioactivity using a scintillation counter (Beckman LS6500).

Take `CC1(COc2ccc(/C=C3\SC(=O)NC3=O)cc2)CCCCC1` [Compound 2, (Z)-5-(4-[(1-methylcyclohexyl)methoxy]benzylidene)-thiazolidine-2,4-dione, reference compound]: the IC50 amounted to 28 µM in the test with LNCaP cells [1] and 52 µM in the test with LNCaP cells [2].
For the compound `CC1(COc2ccc(CC3SC(=O)NC3=O)cc2)CCCCC1` (stereo not shown) [Compound 1, ciglitazone, reference compound], the results for the concentration for half-maximal inhibition (IC50) in the test with LNCaP cells [1] and in the test on LNCaP cells [2] were 60 µM and 78 µM, respectively.
With `O=C1SC(=Cc2ccc(O)c(C(F)(F)F)c2)C(=O)N1CC(F)(CC(F)(F)F)CC(F)(F)F` [Compound 29, 5-(4-Hydroxy-3-trifluoromethyl-benzylidene)-3-[2,4,4,4-tetrafluoro-2-(2,2,2-trifluoro-ethyl)-butyl]-thiazolidine-2,4-dione], the “inhibition of [3H]2-DG uptake into LNCaP cells (screening, in words)” value with LNCaP cells [2] is given as “substantially improved potency relative to compound 5”.
On to `O=C1SC(=Cc2ccc(O)c(C(F)(F)F)c2)C(=O)N1CC(CC(F)(F)F)CC(F)(F)F` [Compound 28, 5-(4-Hydroxy-3-trifluoromethyl-benzylidene)-3-[4,4,4-trifluoro-2-(2,2,2-trifluoro-ethyl)-butyl]-thiazolidine-2,4-dione], for which, in the test on LNCaP cells [1], the IC50 worked out at 2.2 µM. In addition, in the test with LNCaP cells [2], the IC50 turned out to be 3.5 µM and the “inhibition of [3H]2-DG uptake into LNCaP cells (screening, in words)” value is listed as “substantially improved potency relative to compound 5”.
For the compound `CC1(CN2C(=O)S/C(=C\c3ccc(O)c(C(F)(F)F)c3)C2=O)CCCCC1` [Compound 4, (Z)-5-(4-hydroxy-3-(trifluoromethyl)benzylidene)-3-((1-methylcyclohexyl)methyl)thiazolidine-2,4-dione, reference compound], the IC50 in the test on LNCaP cells [1] was determined as 6 µM; in the test on LNCaP cells [2], 9 µM.

As usually defined, the IC50 is the concentration that inhibits the measured activity by half.
